Experimental data: ChEMBL document CHEMBL5230096, “A comprehensive insight on the recent development of Cyclic Dependent Kinase inhibitors as anticancer agents” (Eur J Med Chem, 2020)
Each block holds one compound with its values, some of them ahead of it.

Columns and labels:
CDK2/Cyclin A2 [1] = biological target: T1, CDK2/Cyclin A2 (Homo sapiens, UniProt P24941); assay: Inhibition of CDK2/cyclin A2 (unknown origin) using histone as substrate in presence of ATP by luminescent ADP detection assay; assay type: protein-complex assay
[2] = biological target: Cyclin-dependent kinase 2/cyclin E (Homo sapiens, UniProt P24941); assay: Inhibition of CDK2/Cyclin E (unknown origin) expressed in baculovirus infected Sf9 cells using histone H1 as substrate in presence of gamma32P-ATP by scintillation counter analysis
MCF7 [3] = assay: Antiproliferative activity against human MCF7 cells assessed as reduction in cell proliferation incubated for 48 hrs by Sulfo-Rhodamine-B stain (SRB) assay; assay type: functional, cell-based; details: MCF7, 48 h
[4] = biological target: Cyclin-dependent kinase 2/cyclin E1 (Homo sapiens, UniProt P24941); assay: Inhibition of CDK2/cyclin E1 (unknown origin) expressed in Sf9 cells using histone H1 as substrate in presence of ATP by microplate reader analysis
K562 = assay: Antiproliferative activity against human K562 cells assessed as reduction in cell proliferation incubated for 3 days by calcein AM staining based fluorescent analysis; assay type: functional; details: K562, 72 h
MCF7 [5] = assay: Antiproliferative activity against human MCF7 cells assessed as reduction in cell proliferation incubated for 3 days by calcein AM staining based fluorescent analysis; assay type: functional; details: MCF7, 72 h
[6] = test system: Panel NCI-60 (60 carcinoma cell lines); assay: Antiproliferative activity against human Panel NCI-60 (60 carcinoma cell lines) cells assessed as inhibition of cell growth at 0.00001 M incubated for 48 hrs by sulforhodamine B assay; assay type: functional; set-up: scale not given: the % may be the effect or the level left; details: dose 10 µM
CDK9/cyclin T1 = CDK9/cyclin T1 (Homo sapiens, UniProt P50750); assay: Inhibition of CDK9/cyclin T1 (unknown origin) assessed as inhibition constant; assay type: protein-complex assay
Chain of CDK9/cyclin T1 (O60563 whole entry): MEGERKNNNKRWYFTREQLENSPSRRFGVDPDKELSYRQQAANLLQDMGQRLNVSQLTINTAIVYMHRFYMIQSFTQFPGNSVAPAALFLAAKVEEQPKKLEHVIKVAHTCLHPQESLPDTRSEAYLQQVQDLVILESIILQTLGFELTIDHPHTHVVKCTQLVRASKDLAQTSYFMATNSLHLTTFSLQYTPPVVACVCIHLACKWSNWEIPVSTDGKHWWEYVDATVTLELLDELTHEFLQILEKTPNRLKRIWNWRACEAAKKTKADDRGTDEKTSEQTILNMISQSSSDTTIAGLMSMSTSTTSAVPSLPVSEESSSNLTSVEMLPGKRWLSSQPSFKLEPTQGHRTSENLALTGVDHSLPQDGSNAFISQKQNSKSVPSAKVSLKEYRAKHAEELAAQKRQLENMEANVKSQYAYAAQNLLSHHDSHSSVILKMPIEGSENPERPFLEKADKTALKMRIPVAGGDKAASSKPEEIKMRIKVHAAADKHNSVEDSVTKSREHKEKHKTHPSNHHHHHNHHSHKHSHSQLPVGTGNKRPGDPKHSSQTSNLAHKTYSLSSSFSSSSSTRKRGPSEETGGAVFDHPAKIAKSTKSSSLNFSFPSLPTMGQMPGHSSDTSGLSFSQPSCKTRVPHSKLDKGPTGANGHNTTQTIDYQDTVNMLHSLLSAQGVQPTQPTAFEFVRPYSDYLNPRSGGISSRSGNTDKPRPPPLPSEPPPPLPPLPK
Chain of CDK9/cyclin T1 (P50750 whole entry): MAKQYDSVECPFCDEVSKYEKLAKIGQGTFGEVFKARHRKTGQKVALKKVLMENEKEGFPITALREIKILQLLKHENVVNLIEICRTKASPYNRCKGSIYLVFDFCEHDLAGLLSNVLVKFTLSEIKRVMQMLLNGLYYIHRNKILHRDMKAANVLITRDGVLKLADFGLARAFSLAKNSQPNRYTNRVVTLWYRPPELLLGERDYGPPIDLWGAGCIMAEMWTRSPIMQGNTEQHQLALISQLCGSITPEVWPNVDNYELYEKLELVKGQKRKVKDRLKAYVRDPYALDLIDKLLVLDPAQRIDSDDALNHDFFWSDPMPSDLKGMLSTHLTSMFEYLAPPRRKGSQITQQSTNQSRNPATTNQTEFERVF

B16-F10 = assay: Antiproliferative activity against mouse B16-F10 cells assessed reduction in cell proliferation; assay type: functional, cell-based
MCF7 [7] = assay: Antiproliferative activity against human MCF7 cells assessed reduction in cell proliferation; assay type: functional, cell-based
Histone deacetylase = assay: Inhibition of HDAC (unknown origin); assay type: protein assay, Homo sapiens
[8] = biological target: Cyclin-dependent kinase 2 (Homo sapiens, UniProt P24941)
Description: Inhibition of CDK2 (unknown origin)

HeLa [9] = assay: Antiproliferative activity against human Hela cells assessed as reduction in cell viability by MTT assay; assay type: functional, cell-based
HepG2 = assay: Antiproliferative activity against human HepG2 cells assessed as reduction in cell viability by MTT assay; assay type: functional, cell-based
Caco-2 = assay: Antiproliferative activity against human Caco-2 cells assessed as reduction in cell viability by MTT assay; assay type: functional, cell-based
A549 = assay: Antiproliferative activity against human A549 cells assessed as reduction in cell viability by MTT assay; assay type: functional, cell-based
MCF7 [10] = assay: Antiproliferative activity against human MCF7 cells assessed as reduction in cell viability by MTT assay; assay type: functional, cell-based
[11] = biological target: T2, CDK2/Cyclin A2 (Homo sapiens) (UniProt P24941+P20248); assay: Inhibition of CDK2/Cyclin A2 (unknown origin) at 10 uM by Kinase-Glo Plus luminescence kinase assay; assay type: protein-complex assay
[12] = biological target: T3, Protein cereblon/Cyclin-dependent kinase 9 (Homo sapiens) (UniProt P50750+Q96SW2); assay: Protac activity at CRBN/CDK9 in human HCT-116 cells assessed as induction of CDK9 degradation at 20 uM incubated for 6 hrs by Western blot analysis; assay type: cell-based
T3 sequence (P50750 whole entry, looked up): as the sequence (P50750 whole entry) above
T3 sequence (Q96SW2 whole entry, looked up): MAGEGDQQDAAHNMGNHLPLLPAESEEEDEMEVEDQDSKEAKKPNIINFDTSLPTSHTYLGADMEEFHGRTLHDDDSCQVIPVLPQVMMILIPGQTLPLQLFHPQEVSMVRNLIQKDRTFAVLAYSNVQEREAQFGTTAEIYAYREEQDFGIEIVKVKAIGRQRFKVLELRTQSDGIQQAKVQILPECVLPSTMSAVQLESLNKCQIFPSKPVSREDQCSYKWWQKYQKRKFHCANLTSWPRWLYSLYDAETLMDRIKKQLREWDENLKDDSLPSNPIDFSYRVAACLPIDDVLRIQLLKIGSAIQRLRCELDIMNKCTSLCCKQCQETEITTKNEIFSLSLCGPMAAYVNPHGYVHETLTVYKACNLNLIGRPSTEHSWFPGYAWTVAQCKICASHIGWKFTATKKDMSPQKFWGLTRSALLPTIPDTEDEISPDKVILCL

[13] = biological target: T3, Protein cereblon/Cyclin-dependent kinase 9 (Homo sapiens); assay: Protac activity at CRBN/CDK9 in human HCT-116 cells assessed as induction of CDK9 degradation at 10 uM incubated for 6 hrs by Western blot analysis; assay type: cell-based
HeLa [14] = assay: Antiproliferative activity against human HeLa cells assessed as reduction in cell viability incubated for 3 days by MTT assay; assay type: functional, cell-based; details: 72 h
CDK7/Cyclin H/MNAT1 = CDK7/Cyclin H/MNAT1 (Homo sapiens, UniProt P50613); assay: Inhibition of CDK7/Cyclin H/MNAT1 (unknown origin) using 5-FAM-YSPTSPSYSPTSPSYSPTSPSKKK as substrate in presence of ATP by spectroscopic analysis; assay type: protein-complex assay
Chain of CDK7/Cyclin H/MNAT1 (P51946 whole entry): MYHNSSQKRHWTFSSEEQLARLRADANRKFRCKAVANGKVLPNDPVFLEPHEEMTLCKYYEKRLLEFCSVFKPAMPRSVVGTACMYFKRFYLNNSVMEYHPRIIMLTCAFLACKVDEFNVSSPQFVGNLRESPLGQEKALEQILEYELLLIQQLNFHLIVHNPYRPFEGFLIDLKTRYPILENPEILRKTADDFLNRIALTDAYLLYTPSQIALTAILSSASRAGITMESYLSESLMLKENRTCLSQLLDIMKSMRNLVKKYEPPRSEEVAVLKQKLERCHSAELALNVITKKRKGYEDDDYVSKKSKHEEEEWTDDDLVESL
Chain of CDK7/Cyclin H/MNAT1 (P50613 whole entry): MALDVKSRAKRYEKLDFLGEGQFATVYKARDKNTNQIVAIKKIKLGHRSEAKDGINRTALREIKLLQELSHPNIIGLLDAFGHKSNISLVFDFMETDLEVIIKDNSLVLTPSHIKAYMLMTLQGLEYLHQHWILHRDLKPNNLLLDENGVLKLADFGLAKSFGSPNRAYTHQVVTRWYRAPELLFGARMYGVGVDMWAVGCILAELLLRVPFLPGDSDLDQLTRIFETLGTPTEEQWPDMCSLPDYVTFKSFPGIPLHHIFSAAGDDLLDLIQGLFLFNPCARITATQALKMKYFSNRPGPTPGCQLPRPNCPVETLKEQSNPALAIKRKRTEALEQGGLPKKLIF
Chain of CDK7/Cyclin H/MNAT1 (P51948 whole entry, further chain): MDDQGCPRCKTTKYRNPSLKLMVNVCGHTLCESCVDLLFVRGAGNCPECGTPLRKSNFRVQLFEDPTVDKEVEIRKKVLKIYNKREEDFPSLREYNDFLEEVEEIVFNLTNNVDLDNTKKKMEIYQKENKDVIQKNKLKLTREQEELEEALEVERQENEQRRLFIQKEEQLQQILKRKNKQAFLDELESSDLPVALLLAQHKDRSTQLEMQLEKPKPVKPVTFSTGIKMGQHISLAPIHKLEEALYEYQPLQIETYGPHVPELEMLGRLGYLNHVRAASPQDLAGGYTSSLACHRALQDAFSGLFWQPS

CDK2/Cyclin A2 [15] = biological target: T1, CDK2/Cyclin A2; assay: Inhibition of CDK2/Cyclin A2 (unknown origin) incubated for 40 mins in presence of ATP by Kinase-Glo Plus luminescence kinase assay; assay type: protein-complex assay
[16] = biological target: T2, CDK2/Cyclin A2 (Homo sapiens); assay: Inhibition of CDK2/Cyclin A2 (unknown origin) at 10 uM incubated for 40 mins in presence of ATP by Kinase-Glo Plus luminescence kinase assay; assay type: protein-complex assay
[17] = test system: Panel NCI-60 (60 carcinoma cell lines); assay: Antiproliferative activity against human Panel NCI-60 (60 carcinoma cell lines) assessed as reduction in cell viability at 10 uM; assay type: functional
[18] = test system: Human immunodeficiency virus 1; assay: Antiviral activity against HIV1; assay type: functional, organism-based

Structure (SMILES): CCCCCSc1nc(OC(=O)CC(C)(C)C)c2cn[nH]c2n1
IC50 [4]: 16.9 µM
IC50 (K562): 19.8 µM
IC50 (MCF7 [5]): 18.9 µM

Structure (SMILES): COc1ccc(-n2c(-c3ccccc3)c(-c3ccccc3)c3c(SCC(=O)N/N=C\c4ccc(N(C)C)cc4)ncnc32)cc1
Activity [6]: <50%

Structure (SMILES): O=C(CCCn1cc(CNC2CCCCC2)c(-c2ccccc2)n1)NO
IC50 (B16-F10): 3.9 µM
IC50 (MCF7 [7]): 1120 nM
IC50 (Histone deacetylase): 2.95 µM
IC50 [8]: 4630 nM

Structure (SMILES): CCOC(=O)C1=C(Cn2cc(COc3ccccc3C3NC(=O)NC(CCl)=C3C(=O)OCC)nn2)NC(=O)NC1c1ccc(O)c(OC)c1 (centres undefined)
IC50 (HeLa [9]): 18 µM

Structure (SMILES): CCOC(=O)CSc1ncnc2c1c(-c1ccccc1)c(-c1ccccc1)n2-c1ccc(C)cc1
Activity [6]: <50%

Structure (SMILES): CCCCCSc1nc(OC(=O)c2cc3ccccc3o2)c2cn[nH]c2n1
IC50 [4]: 8.8 µM
IC50 (K562): 19.8 µM
IC50 (MCF7 [5]): 18.9 µM

Structure (SMILES): C[C@@H](CO)Nc1nc(N)c(N=O)c(OCC2CCCCC2)n1
IC50 [8]: 160 nM

Structure (SMILES): COc1ccc(-n2c(-c3ccccc3)c(-c3ccccc3)c3c(SCC(=O)N/N=C\c4ccccc4[N+](=O)[O-])ncnc32)cc1
Activity [6]: <50%

Structure (SMILES): COc1cccc2c1C(=O)c1c(O)c3c(c(O)c1C2=O)C[C@@](O)(C(=O)CO)C[C@@H]3O[C@H]1C[C@H](N)[C@H](O)[C@H](C)O1 [DOXORUBICIN]
IC50 (HeLa [14]): 1110 nM

Structure (SMILES): CCCCCSc1nc(Nc2ccc(SC)cc2)c2cn[nH]c2n1
IC50 [4]: 8.8 µM
IC50 (K562): 19.9 µM
IC50 (MCF7 [5]): 19.2 µM

Structure (SMILES): C[C@@H](CO)Nc1nc(N)c(/[N+]([O-])=N/C#N)c(OCC2CCCCC2)n1
IC50 [8]: 300 nM

Structure (SMILES): CCOC(=O)c1cnn2c(-c3ccc(Cl)cc3)nc(NCc3ccccc3)nc12
IC50 (CDK2/Cyclin A2 [15]): 2090 nM
inhibition [16]: 82.4%
inhibition at 10 µM [17]: 41.8%

More lines, now with the values ahead:

IC50 (CDK2/Cyclin A2 [1]): < 20 nM
Structure (SMILES): O=C(Nc1ccc(F)cc1)c1cnn(-c2cc(NCc3ccccc3)ncn2)c1

IC50 [2]: 1500 nM
Structure (SMILES): O=c1[nH]cc(-c2ccccc2Cl)c2nccn12

IC50 (MCF7 [3]): 20.4 µM
Structure (SMILES): Cc1ccc(S(=O)(=O)Nc2ccc(-c3ccnc(Nc4ccc(S(=O)(=O)Nc5cc(C)no5)cc4)c3C#N)cc2)cc1

Ki (CDK9/cyclin T1): 3.26 nM
Structure (SMILES): COc1ccc(C2CC(c3c(O)c4ccccc4oc3=O)=NN2c2ccccc2)cc1OC (centres undefined)

IC50 [4]: 7.8 µM
IC50 (K562): 19.9 µM
IC50 (MCF7 [5]): 19.2 µM
Structure (SMILES): Clc1ccccc1Nc1nc(SCCc2ccccc2)nc2[nH]ncc12

IC50 (CDK2/Cyclin A2 [1]): < 20 nM
Structure (SMILES): O=C(c1cnn(-c2cc(NCc3ccccc3)ncn2)c1)N1CCOCC1

IC50 (HepG2): 24.2 µM
IC50 (Caco-2): 29.3 µM
IC50 (A549): 30 µM
IC50 (MCF7 [10]): 14.1 µM
Structure (SMILES): CCOC(=O)C1=C(C)n2nc(Nc3ccccc3)c(C(N)=O)c2NC1c1ccc(F)cc1 (centres undefined)

IC50 (HeLa [9]): 18 µM
Structure (SMILES): CCOC(=O)C1=C(CCl)NC(=O)NC1c1ccc(OCc2cn(CC3=C(C(=O)OCC)C(c4ccc([N+](=O)[O-])cc4)NC(=O)N3)nn2)cc1 (centres undefined)

inhibition [11]: 40%
Structure (SMILES): Cc1cc(C)nc(NS(=O)(=O)c2ccc(N/C=C3\C(=O)NN=C3Nc3ccccc3)cc2)n1

Activity [12]: 65%
Activity [13]: 56%
Structure (SMILES): O=C1CCC(N2C(=O)c3cccc(OCCCCCOc4ccc(CC(=O)Nc5cc(C6CCC6)[nH]n5)cc4)c3C2=O)C(=O)N1 (centres undefined)

IC50 [4]: 14.8 µM
IC50 (K562): 19.8 µM
IC50 (MCF7 [5]): 18.9 µM
Structure (SMILES): CCCCCSc1nc(OC(=O)c2ccccc2)c2cn[nH]c2n1

IC50 (CDK7/Cyclin H/MNAT1): 20 nM
Structure (SMILES): CN(C)C/C=C/C(=O)Nc1ccc(C(=O)N[C@@]2(C)CCC[C@@H](Nc3ncc(Cl)c(-c4c[nH]c5ccccc45)n3)C2)nc1

IC50 (K562): 19.8 µM
IC50 (MCF7 [5]): 18.9 µM
Structure (SMILES): O=C(Oc1nc(SCCc2ccccc2)nc2[nH]ncc12)c1cc2ccccc2o1

IC50 [2]: 3200 nM
Structure (SMILES): O=c1[nH]cc(-c2ccccc2F)c2nccn12

IC50 (HepG2): 17.1 µM
IC50 (Caco-2): 25.2 µM
IC50 (A549): 29.9 µM
IC50 (MCF7 [10]): 10.1 µM
Structure (SMILES): CCOC(=O)C1=C(C)n2nc(Nc3ccccc3)c(C#N)c2NC1c1ccc(OC)cc1 (centres undefined)

IC50 [4]: 8.7 µM
IC50 (K562): 19.9 µM
IC50 (MCF7 [5]): 19.2 µM
Structure (SMILES): O=[N+]([O-])c1cccc(Nc2nc(SCCc3ccccc3)nc3[nH]ncc23)c1

IC50 [18]: 3.1 µM
Structure (SMILES): O=C1CC(=O)N(c2ccc(S(=O)(=O)Nc3ncccn3)cc2)C(=S)N1C(=O)c1ccccc1
